The text below walks through data of ChEMBL document CHEMBL3351382, “New thiophene-1,2,4-triazole-5(3)-ones: highly bioactive thiosemicarbazides, structures of Schiff bases and triazole-thiols” (Eur J Med Chem, 2014).

The subject of series [1] is Yersinia pseudotuberculosis. As to conditions: ATCC 911.
Another series has as its system Enterococcus faecalis. Kind of series: Antimicrobial activity against Enterococcus faecalis ATCC 29212 after 24 hrs by agar dilution method. In kind it is functional, organism-based. On the technique in general: Agar dilution tests growth on a series of plates holding different concentrations.
The next series relates to Staphylococcus aureus. Kind of series: Antimicrobial activity against Staphylococcus aureus ATCC 25923 after 24 hrs by agar dilution method. The class given is functional.
The test system of another series is Bacillus cereus. Kind of series: Antimicrobial activity against Bacillus cereus 709 Roma after 24 hrs by agar dilution method. In kind it is functional.
The nature of series [2]: Antioxidant activity assessed as trolox equivalent of ferric ion reducing activity using fe3+-TPTZ at 200 ug/ml by FRAP assay. The class given is physicochemical.
Another series has as its system Escherichia coli. Description: Antimicrobial activity against Escherichia coli ATCC 25922 after 24 hrs by agar dilution method. In kind it is functional, organism-based.
The next series concerns Pseudomonas aeruginosa. Description: Antimicrobial activity against Pseudomonas aeruginosa ATCC 10145 after 24 hrs by agar dilution method. In kind it is functional, organism-based.
The test system of a further series is Listeria monocytogenes. Kind of series: Antimicrobial activity against Listeria monocytogenes ATCC 43251 after 24 hrs by agar dilution method. In kind it is functional, organism-based.
Another series relates to Saccharomyces cerevisiae. Description: Antimicrobial activity against Saccharomyces cerevisiae RSKK 251 after 24 hrs by agar dilution method. The class given is functional, organism-based.
A further series deals with Candida albicans. Description: Antimicrobial activity against Candida albicans ATCC 60193 after 24 hrs by agar dilution method. In kind it is functional, organism-based.
The test system of series [3] is Mycolicibacterium smegmatis. Kind of series: Antimicrobial activity against Mycobacterium smegmatis ATCC 607 after 24 hrs by agar dilution method. The class given is functional.
Series [4] in a line: Antioxidant activity assessed as DPPH scavenging activity at 200 ug/ml after 60 mins by spectrophotometry. The class given is physicochemical. As to conditions: 1 h. A general note: The DPPH test is a chemical assay of radical scavenging.

Each structure is given as a SMILES string. Values after ≈ are worked out from the molar mass of the structure shown. Active and inactive are the calls of the source. No cut-off for these calls is given here.

With `Nn1c(Cc2cccs2)nn(CC(=O)N/N=C/c2cccnc2)c1=O`, the MIC result (in series [1]; in the series with Enterococcus faecalis; in the series with Staphylococcus aureus; with Bacillus cereus; in the series on Escherichia coli; in the series with Pseudomonas aeruginosa) was “inactive” throughout. Moreover, the MIC result (with Listeria monocytogenes; in the series with Saccharomyces cerevisiae; in the series with Candida albicans; in [3]) was “inactive” in each case. Moreover, the Activity in [2] was determined as 26 µM.

`O=C(Cn1nc(Cc2cccs2)n(/N=C/c2cccs2)c1=O)N/N=C/c1cccs1`: the MIC result (in series [1]; with Enterococcus faecalis; with Staphylococcus aureus; in the series with Bacillus cereus; in the series with Escherichia coli; in the series with Pseudomonas aeruginosa) was “inactive” throughout. Further, the MIC entry (with Listeria monocytogenes; with Saccharomyces cerevisiae; in the series on Candida albicans; in series [3]) was “inactive” throughout. The Activity in series [2] came to 27 µM.

Regarding `Nn1c(Cc2cccs2)nn(Cc2nnc(S)n2-c2ccc(Br)cc2)c1=O`, the MIC result (in series [1]; with Enterococcus faecalis; in the series with Escherichia coli; in the series with Pseudomonas aeruginosa; with Listeria monocytogenes; in the series on Saccharomyces cerevisiae) was “inactive” each time. In the series with Candida albicans, the MIC result was “inactive”. In addition, the Activity in [4] was determined as 22.1%; in series [2], 70 µM. The MIC in the series with Staphylococcus aureus (ATCC 25923, 24 h) was determined as 1750 µg/mL (≈ 3.77 mM); in the series with Bacillus cereus it was 1750 µg/mL (≈ 3.77 mM); in series [3] (ATCC 607, 24 h), 1750 µg/mL (≈ 3.77 mM).

On to `COc1ccc(/C=N/NC(=O)Cn2nc(Cc3cccs3)n(N)c2=O)cc1`, for which the MIC result (in [1]; in the series with Enterococcus faecalis; with Staphylococcus aureus; with Bacillus cereus; with Escherichia coli; in the series on Pseudomonas aeruginosa) was “inactive” each time. The MIC entry (in the series with Listeria monocytogenes; with Saccharomyces cerevisiae; in the series on Candida albicans; in series [3]) was “inactive” throughout. For the same compound, the Activity in series [2] came to 87 µM.

For `Nn1c(Cc2cccs2)nn(CC(=O)N/N=C/c2ccccc2)c1=O`, the MIC entry (in series [1]; with Enterococcus faecalis; with Staphylococcus aureus; with Bacillus cereus; in the series on Escherichia coli; in the series on Pseudomonas aeruginosa) was “inactive” in each case. Moreover, the MIC result (with Listeria monocytogenes; with Saccharomyces cerevisiae; in the series with Candida albicans; in [3]) was “inactive” in each case. Moreover, in [2], the Activity stood at 40 µM.

For `Cc1ccc(-n2c(S)nnc2Cn2nc(Cc3cccs3)n(N)c2=O)cc1`, the MIC entry (in series [1]; in the series with Enterococcus faecalis; in the series with Staphylococcus aureus; with Bacillus cereus; with Escherichia coli; with Pseudomonas aeruginosa) was “inactive” in each case. The MIC entry (in the series with Listeria monocytogenes; in the series with Saccharomyces cerevisiae; in the series with Candida albicans; in series [3]) was “inactive” throughout. Moreover, the Activity in series [4] amounted to 23.9%; in [2], 54 µM.

As for `CCOC(=O)Cn1nc(Cc2cccs2)n(N)c1=O`, the MIC result (in series [1]; in the series with Enterococcus faecalis; in the series on Staphylococcus aureus; with Bacillus cereus; in the series on Escherichia coli; with Pseudomonas aeruginosa) was “inactive” each time. Besides, the MIC result in the series on Listeria monocytogenes, in the series on Saccharomyces cerevisiae and in the series with Candida albicans was “inactive” throughout. Further, the Activity in series [4] was 10%; in series [2], 14 µM. For the same compound, inhibition of growth in [3] (ATCC 607, 24 h) (MIC) required 994 µg/mL (≈ 3.52 mM).

For `NNC(=O)Cn1nc(Cc2cccs2)n(N)c1=O`, the MIC result (in [1]; in the series on Enterococcus faecalis; in the series on Staphylococcus aureus; in the series on Bacillus cereus; in the series with Escherichia coli; in the series with Pseudomonas aeruginosa) was “inactive” in each case. The MIC entry in the series with Listeria monocytogenes, in the series with Saccharomyces cerevisiae and with Candida albicans was “inactive” throughout. Further, the Activity is 1.9% in series [4] and 1368 µM in [2]. Inhibition of growth in series [3] (ATCC 607, 24 h) (MIC) required 994 µg/mL (≈ 3.7 mM).

Turning to `Nn1c(Cc2cccs2)nn(CC(=O)N/N=C/c2cccs2)c1=O`, the MIC result (in series [1]; in the series with Enterococcus faecalis; with Staphylococcus aureus; in the series on Bacillus cereus; in the series with Escherichia coli; in the series with Pseudomonas aeruginosa) was “inactive” throughout. Also, the MIC result (in the series with Listeria monocytogenes; in the series with Saccharomyces cerevisiae; in the series on Candida albicans; in series [3]) was “inactive” each time. Also, the Activity in [2] came out at 36 µM.

Consider `Nn1c(Cc2cccs2)nn(Cc2nnc(S)n2-c2ccc(F)cc2)c1=O`, for which the MIC entry (in series [1]; in the series with Enterococcus faecalis; in the series on Staphylococcus aureus; in the series with Bacillus cereus; in the series on Escherichia coli; in the series on Pseudomonas aeruginosa) was “inactive” throughout. In addition, the MIC result (with Listeria monocytogenes; in the series on Saccharomyces cerevisiae; with Candida albicans; in series [3]) was “inactive” throughout. The Activity was found to be 31.7% in series [4] and 39 µM in [2].

For the compound `COc1ccc(/C=N/NC(=O)Cn2nc(Cc3cccs3)n(/N=C/c3ccc(OC)cc3)c2=O)cc1`, the MIC entry (in [1]; with Enterococcus faecalis; in the series with Staphylococcus aureus; in the series with Bacillus cereus; in the series with Escherichia coli; with Pseudomonas aeruginosa) was “inactive” in each case. The MIC result (in the series with Listeria monocytogenes; with Saccharomyces cerevisiae; with Candida albicans; in series [3]) was “inactive” in each case. Moreover, the Activity in series [2] turned out to be 54 µM.

`O=C(Cn1nc(Cc2cccs2)n(/N=C/c2ccccc2)c1=O)N/N=C/c1ccccc1`: the MIC entry (in series [1]; in the series on Enterococcus faecalis; with Staphylococcus aureus; in the series with Bacillus cereus; with Escherichia coli; with Pseudomonas aeruginosa) was “inactive” throughout. For the same compound, the MIC entry (with Listeria monocytogenes; in the series on Saccharomyces cerevisiae; with Candida albicans; in series [3]) was “inactive” throughout. Besides, in series [2], the Activity was found to be 35 µM.

Regarding `CC1(C)S[C@@H]2[C@H](NC(=O)[C@H](N)c3ccccc3)C(=O)N2[C@H]1C(=O)O`, the MIC result (in [1]; in the series with Enterococcus faecalis; in the series with Staphylococcus aureus; in the series on Bacillus cereus; with Escherichia coli; in the series on Pseudomonas aeruginosa) was “Active” each time. In addition, the MIC result (in the series with Listeria monocytogenes; in series [3]) was “Active” in each case.

`O=C(Cn1nc(Cc2cccs2)n(/N=C/c2ccco2)c1=O)N/N=C/c1ccco1`: the MIC result (in [1]; in the series with Enterococcus faecalis; with Staphylococcus aureus; with Bacillus cereus; in the series on Escherichia coli; in the series on Pseudomonas aeruginosa) was “inactive” throughout. Moreover, the MIC result (in the series on Listeria monocytogenes; in the series on Saccharomyces cerevisiae; in the series with Candida albicans; in [3]) was “inactive” each time. Further, the Activity in [4] came to 30.9%; in [2], 79 µM.

On to `Nn1c(Cc2cccs2)nn(CC(=O)N/N=C/c2ccco2)c1=O`, for which the MIC entry (in series [1]; in the series on Enterococcus faecalis; in the series on Staphylococcus aureus; in the series on Bacillus cereus; with Escherichia coli; with Pseudomonas aeruginosa) was “inactive” each time. Besides, the MIC result (in the series with Listeria monocytogenes; with Saccharomyces cerevisiae; in the series with Candida albicans; in series [3]) was “inactive” in each case. Moreover, the results for the Activity in series [4] and in series [2] were 9.7% and 10 µM, respectively.

`OC(Cn1cncn1)(Cn1cncn1)c1ccc(F)cc1F`: the MIC result with Saccharomyces cerevisiae and with Candida albicans was “Active” in each case.

`O=C(Cn1nc(Cc2cccs2)n(/N=C/c2cccnc2)c1=O)N/N=C/c1cccnc1`: the MIC result (in [1]; in the series on Enterococcus faecalis; with Staphylococcus aureus; in the series on Bacillus cereus; with Escherichia coli; in the series on Pseudomonas aeruginosa) was “inactive” throughout. Further, the MIC entry (in the series with Listeria monocytogenes; in the series on Saccharomyces cerevisiae; in the series with Candida albicans; in [3]) was “inactive” in each case. Moreover, the Activity in series [2] is 16 µM.

As a reminder, the MIC is the least concentration at which growth counts as inhibited.
